System: HeLa-CAT cells
Experiment: Recovery of translation after heat shock (3H-leucine pulse-labeling)
Assay type: cell-based, human
Settings: contribution of untransfected cells subtracted
Procedure: In a typical experiment, parallel HeLa-CAT cultures in 60 mm dishes (more than 70% confluent) were transfected with 0.75 ug of EGFP construct and 2.25 ug of HSF1(+) or HSF1(−) construct and 15 ul Lipofectamine™. Before exposing the cultures to heat shock about 36 hours post transfection, cells were replated (to achieve about 70% confluence). Note that in some experiments, HSF1(+) was delivered by infection with an adenoviral vector rather than by transfection. Cultures were exposed to a 42° C./1 hour heat shock and then returned to 37° C. Rates of protein synthesis before, during, and at different times after a subsequent, more severe heat shock were determined by pulse-labeling of cells with ^3H-leucine. For labeling, cultures were washed two times with prewarmed PBS, and one ml of labeling medium (leucine-free DMEM with 2% FBS and 65 uCi of ^3H-leucine (179 Ci/mmolc)) was added. […] Relative rates of protein synthesis were calculated as cpm/ug protein. […]
To find out whether HSF1(−) could function as a negatively acting factor, HeLa-CAT cells containing integrated copies of an hsp70B-chloramphenicol acetyltransferase (CAT) gene were co-transfected with an HSF1(−) and an EFGP-expressing construct. […] Rates of protein synthesis were assessed by pulse-labeling cells with ^3H-leucine. […]

In the case of human HSF1d453–523 [HSF1(−)], the “corrected rate of protein synthesis one hour after heat shock” value (first experiment) is reported as “about 5%” and the “corrected rate of protein synthesis one hour after heat shock” value (second experiment) is reported as about 24%.
